From PMC8125234, “Cardiolipin Stabilizes and Increases Catalytic Efficiency of Carnitine Palmitoyltransferase II and Its Variants S113L, P50H, and Y479F” (International Journal of Molecular Sciences, 2021)
Where a chain is given by its changes, count along the chain named.

Assays:
CPT II WT = target: T1, CPT II WT (Homo sapiens, UniProt P23786); assay: Influence of CL on the enzyme activity; assay type: biochemical; conditions: for Maximal Enzymatic Activity: w/o CL = 100
T1 construct: made in house; host or cells: Escherichia coli BL21Gold DE
T1 sequence (P23786 26-658): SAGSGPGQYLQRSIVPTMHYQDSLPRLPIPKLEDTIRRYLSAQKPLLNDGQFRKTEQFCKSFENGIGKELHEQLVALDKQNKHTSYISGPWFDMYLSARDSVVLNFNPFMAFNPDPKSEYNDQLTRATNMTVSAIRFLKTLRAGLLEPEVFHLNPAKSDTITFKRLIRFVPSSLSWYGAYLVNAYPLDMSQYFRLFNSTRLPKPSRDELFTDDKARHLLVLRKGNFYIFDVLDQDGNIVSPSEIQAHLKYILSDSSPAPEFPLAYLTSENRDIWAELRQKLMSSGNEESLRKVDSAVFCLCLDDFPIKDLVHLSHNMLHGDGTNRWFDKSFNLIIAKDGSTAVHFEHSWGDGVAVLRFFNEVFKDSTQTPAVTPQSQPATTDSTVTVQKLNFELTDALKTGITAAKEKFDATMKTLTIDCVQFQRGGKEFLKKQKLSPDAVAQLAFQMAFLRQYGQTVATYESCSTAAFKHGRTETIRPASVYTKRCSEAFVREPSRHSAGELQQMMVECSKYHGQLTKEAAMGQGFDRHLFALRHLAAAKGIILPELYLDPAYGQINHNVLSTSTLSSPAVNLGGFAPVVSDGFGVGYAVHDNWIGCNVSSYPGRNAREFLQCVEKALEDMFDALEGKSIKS
Procedure: (§1) Then, the effect of CL, as a potential stabilizing agent, was investigated in the activity assay. Therefore, 0.1 mg/mL recombinant enzyme was incubated with various concentrations of CL (0.125, 0.25 or 0.5 mM) or buffer at 30 and 42 °C, respectively.
(§2) Before activity measurements, the storage buffer of the enzymes was replaced with assay buffer (50 mM KH2PO4, 120 mM KCl, 1 mM EDTA-Na4) using vivaspin turbo 4 tubes (Satorius Stedim biotech GmbH, Göttingen, Germany) at 4 °C. The pH of assay buffer was adjusted with KOH to 7.4. The storage buffer was diluted at least 1:500 in assay buffer. In addition, before each experimental set up, the protein samples were centrifuged at 16,000× g for 5 min at 4 °C to remove any micro-aggregates. After that, the protein concentration was determined using bicinchoninic acid (BCA) protein assay kit (Thermo Fisher Scientific GmbH, Berlin, Germany). The enzyme activity of recombinant CPT II was performed following Rufer et al. with modifications described elsewhere. […] After pre-conditioning the mixture to 25 °C for 2 min, the reaction was started by adding 15 nM of recombinant enzyme. The reverse reaction of CPT II was detected with the enzyme activity assay. CPT II catalyzed the transfer of fatty acid residue from Pal-CoA to L-carnitine with release of CoA and Pal-carnitine. The released CoA was then detected by the reaction of the free thiol group with DTNB, forming 5-mercapto-(2-nitrobenzoic acid). This compound has a molar extinction coefficient of 13,600 M^−1 cm^−1 at a wavelength of 410 nm, and its formation was followed spectroscopically. […] The slope of the progress curve was used to determine the reaction velocity.
(§3) The purified enzymes were incubated at different temperatures (30, 37, 40 and 42 °C) using a protein concentration of 1 mg/mL during the incubation periods to investigated the half-lives of WT and variants. 0.1 mg/mL enzyme was incubated with or without CL (0.125, 0.25 and 0.5 mM) in the assay buffer. The enzyme activities were determined by adding 15 nM of pre-incubated enzyme according to Section 4.3 after various incubation times up to 60 min at an assay temperature of 25 °C. Experiments were done at least three times independently as double determination.

CPT II variant Y479F = target: T2, CPT II variant Y479F (Homo sapiens, UniProt P23786, Y479F); assay: Influence of CL on the enzyme activity; assay type: biochemical
T2 construct: made in house; host or cells: Escherichia coli BL21Gold DE
T2 sequence (P23786 26-658 Y479F): T1 sequence (P23786 26-658) with Y454F
Procedure: as §1, §2, §3

CPT II variant S113L = target: T3, CPT II variant S113L (Homo sapiens, UniProt P23786, S113L); parameters: method as in PMID 13534673; conditions: cited from earlier work
T3 construct: made in house; host or cells: Escherichia coli BL21Gold DE
T3 sequence (P23786 26-658 S113L): T1 sequence (P23786 26-658) with S88L

Cardiolipin [CL]
Increase of the enzymatic activity by CL (CPT II WT): 1.5 fold
Maximal Enzymatic Activity (CPT II WT; 0.25 mM CL): 152.3 ± 5.5%
Maximal Enzymatic Activity (CPT II WT; 0.5 mM CL): 135.9 ± 4.7%
Enzymatic activity in the presence of CL (CPT II WT; 0.25 and 0.5 mM CL, before incubation periods): up to 150%
Increase of the enzymatic activity by CL (CPT II variant Y479F): 1.8 fold
Maximal Enzymatic Activity (CPT II variant Y479F; 0.5 mM CL, w/o CL = 100): 151.7 ± 7.6%
Enzymatic activity in the presence of CL (CPT II variant Y479F; before incubation periods): 175%
Effect of CL on enzyme activity (CPT II variant S113L): no benefit
